The record followed here is patent US20090069320A1, “Substituted 4-Amino-Quinazoline Compounds with Metabotropic Glutamate Receptor Regulating Activity and Uses Thereof” (Gruenenthal GmbH, priority 2006, published 2009).

In test [1] the target is T1, mGluR5 receptor (Sus scrofa, UniProt I3LUI7).
T1 construct: 450 μg of protein from brain homogenate with 5 nM ^3[H]-MPEP; from tissue; host or cells: pig brain halves without medulla, cerebellum and pons
The experiment in a line: [3H]-MPEP mGluR5 receptor binding assay (pig brain homogenate). The settings on record: 5 nM [3H]-MPEP, read-out: IC50 mGluR5 Receptor (pig) [^3H]-MPEP Bond. The procedure, abridged: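 Radioligand displacement of 5 nM [3H]-MPEP from pig brain homogenate (450 μg protein; medulla, cerebellum and pons removed) in 20 mM Hepes pH 8.0. Compounds were tested at 10 μM, incubated 60 min at room temperature, then filtered and counted by scintillation. Non-specific binding was defined with 10 μM MPEP.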

Test [2] deals with T2, mGluR5 receptor (human) (Homo sapiens, UniProt P41594).
T2 construct: host or cells: CHO
T2 sequence (P41594 21-1212): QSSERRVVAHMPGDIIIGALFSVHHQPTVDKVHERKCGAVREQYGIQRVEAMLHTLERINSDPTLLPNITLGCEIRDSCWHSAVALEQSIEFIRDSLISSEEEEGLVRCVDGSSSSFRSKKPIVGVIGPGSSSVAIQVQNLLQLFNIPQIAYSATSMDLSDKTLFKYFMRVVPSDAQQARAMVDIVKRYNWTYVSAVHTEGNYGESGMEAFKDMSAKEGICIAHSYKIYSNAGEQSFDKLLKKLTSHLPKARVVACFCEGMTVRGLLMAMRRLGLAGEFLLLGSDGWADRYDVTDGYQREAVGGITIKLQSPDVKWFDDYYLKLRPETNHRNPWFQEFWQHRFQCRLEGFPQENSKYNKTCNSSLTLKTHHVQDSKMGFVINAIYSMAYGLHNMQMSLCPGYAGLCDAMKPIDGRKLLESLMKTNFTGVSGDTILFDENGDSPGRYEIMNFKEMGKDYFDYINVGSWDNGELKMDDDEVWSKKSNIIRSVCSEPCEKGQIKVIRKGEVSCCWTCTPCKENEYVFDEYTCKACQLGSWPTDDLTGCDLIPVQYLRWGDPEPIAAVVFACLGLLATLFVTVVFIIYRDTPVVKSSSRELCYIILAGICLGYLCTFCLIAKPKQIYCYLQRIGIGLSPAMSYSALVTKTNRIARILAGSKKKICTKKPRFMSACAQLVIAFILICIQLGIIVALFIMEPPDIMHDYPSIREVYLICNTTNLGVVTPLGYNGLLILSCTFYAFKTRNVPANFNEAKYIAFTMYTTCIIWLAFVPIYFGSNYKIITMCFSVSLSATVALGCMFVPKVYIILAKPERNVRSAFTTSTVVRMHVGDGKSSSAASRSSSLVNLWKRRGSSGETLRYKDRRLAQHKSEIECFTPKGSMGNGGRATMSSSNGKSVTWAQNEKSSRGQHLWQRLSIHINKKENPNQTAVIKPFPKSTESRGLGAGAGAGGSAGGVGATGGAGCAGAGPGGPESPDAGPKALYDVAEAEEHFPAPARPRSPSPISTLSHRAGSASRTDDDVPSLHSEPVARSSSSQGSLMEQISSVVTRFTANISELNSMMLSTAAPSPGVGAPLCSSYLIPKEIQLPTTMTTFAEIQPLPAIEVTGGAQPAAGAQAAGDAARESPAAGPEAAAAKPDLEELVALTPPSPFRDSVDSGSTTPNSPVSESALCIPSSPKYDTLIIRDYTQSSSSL
The experiment in a line: Functional Ca2+ influx assay in CHO-hmGluR5 cells (DHPG 10 μM, FLIPR). In kind it is cell-based. On the procedure: V. Functional Ca^2+ Influx Assay
20,000 CHO-hmGluR5 cells/well (Euroscreen, Gosselies, Belgium) are pipetted into 96-well plates (BD Biosciences, Heidelberg, Germany, Ref. 356640, clear bottom, 96-well, poly-D-lysine) and incubated overnight in HBSS buffer (Gibco 14025-050) with the following additions: 10% FCS (GIBCO, 10270-106) and doxycycline (BD Biosciences Clontech 631311 600 ng/ml).
For the functional study the cells were charged with 2 μM of Fluo-4 and 0.01% by vol. pluronic F127 (Molecular Probes Europe BV, Leiden, The Netherlands) in HBSS buffer (Hank's buffered saline solution, Gibco Invitrogen GmbH, Karlsruhe, Germany) with probenicide (Sigma P8761, […]) for 30 min. at 37° C.
The cells are then washed 3 times with washing buffer (HBSS buffer, Gibco No. 14025-050), with probenicide (Sigma P8761, 0.69 mg/ml) and then taken up with the same buffer ad 100 μl. After 15 min. the plates for determining the Ca^2+ measurements in the presence of DHPG ((S)-3,5-dihydroxyphenylglycine, Tocris Biotrend Chemikalien GmbH, Cologne, Germany, final DHPG concentration: 10 μM) and also in the presence or absence of test substances are transferred into a fluorometric imaging plate reader (FLIPR, Molecular Devices, Sunnyvale, Calif.).
The Ca^2+-dependent fluorescence is measured before and after the addition of test substances. The quantification occurs through the measurement of the highest fluorescence intensity over time. After the fluorescence base line has been recorded for 10 sec. 50 μl of test substance solution (different test substance concentrations in HBSS buffer with 1% DMSO and 0.02% Tween 20, Sigma) are added and the fluorescence signal is measured for 6 min. 50 μl of DHPG solution ((S)-3,5-dihydroxyphenylglycine, Tocris Biotrend Chemikalien GmbH, Cologne, Germany, final DHPG concentration: 10 μM) are then added and the influx of Ca^2+ is measured simultaneously for 60 sec. The final DMSO concentration amounts to 0.25% and the final Tween 20 content amounts to 0.005%. The data are analysed with Microsoft Excel and GraphPad Prism. The dose effect curves are calculated with non-linear regression and IC50 values determined. Each data point is determined 3 times and IC50 values are averaged from a minimum of 2 independent measurements. Ki values are calculated according to the following formula:
Ki=IC50/(1+(AGconc./EC50)).
AGconc.=10 μM; EC50 corresponds to the DHPG concentration necessary for the half-maximum influx of Ca^2+.

A short description of test [3]: Formalin test on rats. The format is in vivo, rat. On the procedure: IIa. Formalin Test on Rats:
The formalin test (Dubuisson, D. and Dennis, S. G., 1977, Pain, 4, 161-174) represents a model for acute as well as chronic pain. By a single formalin injection into the dorsal side of a rear paw a biphase nociceptive reaction is inducted in free-moving test animals that is detected by observation of three clearly distinguishable behavior patterns. The reaction is two-phase: phase I=immediate reaction (duration up to 10 min.; paw shaking, licking), phase 2=late reaction (after a resting phase; likewise paw shaking, licking; duration up to 60 min.). The first phase reflects a direct stimulation of the peripheral nocisensors with high spinal nociceptive input or glutamate release (acute pain phase); the second phase reflects a spinal and peripheral hypersensitisation (chronic pain phase). The chronic pain component (phase 2) was evaluated in the studies presented here.
Formalin is applied subcutaneously in a volume of 50 μl and a concentration of 5% into the dorsal side of the right rear paw of each animal. […] The specific changes in behavior such as lifting and shaking of the paw, shifting weight of the animal as well as biting and licking reactions are observed and recorded in the observation period of 21 to 27 min. after the formalin injection. […]

T1 sequence (I3LUI7 19-1212): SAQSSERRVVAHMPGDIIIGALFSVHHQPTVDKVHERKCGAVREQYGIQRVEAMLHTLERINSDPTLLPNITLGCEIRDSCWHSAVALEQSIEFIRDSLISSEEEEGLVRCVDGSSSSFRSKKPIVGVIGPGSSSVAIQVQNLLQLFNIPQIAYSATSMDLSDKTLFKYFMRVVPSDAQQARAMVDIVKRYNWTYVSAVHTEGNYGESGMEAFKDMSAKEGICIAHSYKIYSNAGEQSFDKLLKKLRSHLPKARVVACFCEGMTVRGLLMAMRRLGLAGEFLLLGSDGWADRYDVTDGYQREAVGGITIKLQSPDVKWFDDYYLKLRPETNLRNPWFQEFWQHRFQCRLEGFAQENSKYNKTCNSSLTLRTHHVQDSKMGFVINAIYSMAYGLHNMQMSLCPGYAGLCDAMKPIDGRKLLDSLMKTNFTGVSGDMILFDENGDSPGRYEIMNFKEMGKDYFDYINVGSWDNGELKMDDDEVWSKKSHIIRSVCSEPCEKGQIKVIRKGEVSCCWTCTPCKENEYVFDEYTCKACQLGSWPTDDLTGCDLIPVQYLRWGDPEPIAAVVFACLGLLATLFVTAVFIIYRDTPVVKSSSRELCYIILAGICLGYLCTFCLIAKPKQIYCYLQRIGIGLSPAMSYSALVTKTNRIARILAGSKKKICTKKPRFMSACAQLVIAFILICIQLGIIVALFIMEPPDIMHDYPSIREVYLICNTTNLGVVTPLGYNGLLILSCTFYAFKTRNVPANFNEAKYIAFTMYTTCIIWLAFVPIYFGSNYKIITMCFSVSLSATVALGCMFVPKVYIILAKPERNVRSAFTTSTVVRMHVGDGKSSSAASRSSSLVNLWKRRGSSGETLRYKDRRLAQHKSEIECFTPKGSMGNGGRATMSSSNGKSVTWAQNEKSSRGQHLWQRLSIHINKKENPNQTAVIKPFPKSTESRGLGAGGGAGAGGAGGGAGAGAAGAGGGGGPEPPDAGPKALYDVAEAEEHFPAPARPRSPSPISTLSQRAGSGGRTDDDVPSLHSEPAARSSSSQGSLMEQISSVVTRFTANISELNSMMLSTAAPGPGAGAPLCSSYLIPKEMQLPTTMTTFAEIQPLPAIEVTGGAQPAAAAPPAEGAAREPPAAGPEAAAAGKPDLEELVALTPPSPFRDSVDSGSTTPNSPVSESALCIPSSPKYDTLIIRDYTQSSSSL

As to `CC(C)(C)Nc1ncnc2ccc(-c3ccc(F)c(CN(C(=O)CC#N)C4CC4)c3)cc12` [Example 201, N-[5-(4-tert-butylamino-quinazolin-6-yl)-2-fluoro-benzyl]-2-cyano-N-cyclopropyl-acetamide], the IC50 in test [1] stood at 30 nM. This compound also registered a Ki in test [2] of 2.7 nM. In addition, in test [3] (2.15 mg/kg i.v.), the “Formalin Test” value came out at 46% effect at.

As for `CC(=O)N(Cc1cc(-c2ccc3ncnc(NC4CC4)c3c2)ccc1F)C1CC1` [Example 260, N-cyclopropyl-N-[5-(4-cyclopropylamino-quinazolin-6-yl)-2-fluoro-benzyl]-acetamide], the IC50 in test [1] stood at 30 nM. Moreover, in test [2], the Ki turned out to be 0.8 nM. For the same compound, the “Formalin Test” value in test [3] (10 mg/kg i.v.) came out at 80% effect at.
